Values joined by “and” are separate entries in the source; they are usually repeats but may differ in a detail not shown here. Equal values may be shown once. Read-outs that look alike come from different tables or passages of the source.

What all share (experiment): preservation efficacy test (PET), European Pharmacopoeia 5.1.3
Format in all cases: cell-based

One test has as its system Pseudomonas aeruginosa.
For a further test, the system named is Staphylococcus aureus. To be noted: for number of microorganisms, 2 days / number of microorganisms, 7 days / number of microorganisms, 14 days / number of microorganisms, 28 days: PET, Staphylococcus aureus (SA).
The test system of another test is Escherichia coli. The following applies: for number of microorganisms, 2 days / number of microorganisms, 7 days / number of microorganisms, 14 days / number of microorganisms, 28 days: PET, Escherichia coli (EC).
Another test has as its system Candida albicans. The following applies: for number of microorganisms, 2 days / number of microorganisms, 7 days / number of microorganisms, 14 days / number of microorganisms, 28 days: PET, Candida albicans (CA); for number of microorganisms, 2 days: 2 days after inoculation.
The subject of the next test is Aspergillus brasiliensis. The following applies: for number of microorganisms, 2 days / number of microorganisms, 7 days / number of microorganisms, 14 days / number of microorganisms, 28 days: PET, Aspergillus brasiliensis (AB); for number of microorganisms, 2 days: 2 days after inoculation.
[1] abbreviates: 2 days after inoculation, substance at given % in test formulation.
Setting [2] is: 7 days after inoculation, substance at given % in test formulation.
Where [3] appears, read: 14 days after inoculation, substance at given % in test formulation.
Where [4] appears, read: 28 days after inoculation, substance at given % in test formulation.
[5] abbreviates: 2 days after inoculation, o/w emulsion (Table 53).
Setting [6] is: 7 days after inoculation, o/w emulsion (Table 53).
[7] abbreviates: 14 days after inoculation, o/w emulsion (Table 53).
Setting [8] is: 28 days after inoculation, o/w emulsion (Table 53).

Take `O=C([O-])CC[C@@H](C(=O)[O-])N(CC(=O)[O-])CC(=O)[O-].[Na+].[Na+].[Na+].[Na+]`: the “count at 2 days” value with Pseudomonas aeruginosa (PA, 2 days after inoculation, use concentration in label) stood at 43.000; with Escherichia coli (EC, 2 days after inoculation, use concentration in label), 50.000. The “count at 7 days” value was found to be 95.000 with Pseudomonas aeruginosa (PA, 7 days after inoculation, use concentration in label); 810.000 in the test with Staphylococcus aureus (SA, 7 days after inoculation, use concentration in label); 23.000 in the test with Escherichia coli (EC, 7 days after inoculation, use concentration in label); 440.000 in the test with Aspergillus brasiliensis (AB, 7 days after inoculation, use concentration in label). Further, the “count at 14 days” value came out at 510.000 in the test with Pseudomonas aeruginosa (PA, 14 days after inoculation, use concentration in label); 450.000 with Escherichia coli (EC, 14 days after inoculation, use concentration in label); 200.000 in the test on Candida albicans (CA, 14 days after inoculation, use concentration in label); 720.000 in the test on Aspergillus brasiliensis (AB, 14 days after inoculation, use concentration in label). Moreover, the “count at 28 days” value with Pseudomonas aeruginosa (PA, 28 days after inoculation, use concentration in label) is reported as 350.000; with Candida albicans (CA, 28 days after inoculation, use concentration in label), 390.000; in the test with Aspergillus brasiliensis (AB, 28 days after inoculation, use concentration in label), 660.000.
For the compound `CC(=O)c1ccc(O)cc1` [0.1% 4-Hydroxyacetophenone (SymSave H)], the “PA germ count, 2 days” value in the test with Pseudomonas aeruginosa (setting [1]) turned out to be 1. In the test on Pseudomonas aeruginosa (setting [2]), the “PA germ count, 7 days” value amounted to 1. In addition, the “PA germ count, 14 days” value in the test on Pseudomonas aeruginosa (setting [3]) is reported as 1. The “PA germ count, 28 days” value in the test with Pseudomonas aeruginosa (setting [4]) is recorded as 1. The “SA germ count, 2 days” value in the test with Staphylococcus aureus (setting [1]) was 210.000. Moreover, the “SA germ count, 7 days” value with Staphylococcus aureus (setting [2]) worked out at 1. Moreover, the “SA germ count, 14 days” value in the test on Staphylococcus aureus (setting [3]) is 1. Besides, the “SA germ count, 28 days” value in the test on Staphylococcus aureus (setting [4]) is listed as 1. In the test on Escherichia coli (setting [2]), the “EC germ count, 7 days” value stood at 87.000. In addition, the “EC germ count, 14 days” value in the test on Escherichia coli (setting [3]) is 2.400. Further, in the test with Escherichia coli (setting [4]), the “EC germ count, 28 days” value was determined as 1. In the test with Candida albicans (setting [2]), the “CA germ count, 7 days” value was determined as 81.000. Further, the “CA germ count, 14 days” value in the test on Candida albicans (setting [3]) worked out at 120. Moreover, the “CA germ count, 28 days” value in the test with Candida albicans (setting [4]) amounted to 1. The “AB germ count, 7 days” value in the test with Aspergillus brasiliensis (setting [2]) is reported as 680.000. The “AB germ count, 14 days” value in the test with Aspergillus brasiliensis (setting [3]) turned out to be 58.000. For the same compound, the “AB germ count, 28 days” value with Aspergillus brasiliensis (setting [4]) was 18.000.
For the compound `O=C([O-])c1ccccc1.[Na+]` [0.1% Sodium Benzoate], the “PA germ count, 28 days” value in the test with Pseudomonas aeruginosa is 18.000 and 10. In the test with Staphylococcus aureus, the “SA germ count, 2 days” value was 14.000 and 10; the “SA germ count, 7 days” value was 9.800 and 10. In addition, in the test on Aspergillus brasiliensis, the “AB germ count, 14 days” value was determined as 20.000 and the “AB germ count, 28 days” value is listed as 4.800.
On to `CCCCCCCCC(O)CO` (centres unmarked) [1,2-decylene glycol, reference compound], for which the “number of microorganisms, 2 days” value in the test on Staphylococcus aureus (2 days after inoculation) stood at 1; in the test with Escherichia coli (2 days after inoculation), 1; with Candida albicans it was 50.000; in the test with Aspergillus brasiliensis, 600.000. Moreover, the “number of microorganisms, 7 days” value with Staphylococcus aureus (7 days after inoculation) turned out to be 1; in the test with Escherichia coli (7 days after inoculation) it was 1; in the test with Candida albicans (7 days after inoculation), 12.000; with Aspergillus brasiliensis (7 days after inoculation) it was 520.000. For the same compound, the “number of microorganisms, 14 days” value in the test on Staphylococcus aureus (14 days after inoculation) is 1; with Escherichia coli (14 days after inoculation), 1; in the test on Candida albicans (14 days after inoculation) it was 4.100; with Aspergillus brasiliensis (14 days after inoculation), 240.000. Further, the “number of microorganisms, 28 days” value in the test on Staphylococcus aureus (28 days after inoculation) is reported as 1; in the test on Escherichia coli (28 days after inoculation), 1; with Candida albicans (28 days after inoculation) it was 1; in the test with Aspergillus brasiliensis (28 days after inoculation) it was 190.000.
In the case of `CCCCCCC(O)CO` (centres unmarked) [1,2-octanediol], the “number of microorganisms, 2 days” value in the test on Staphylococcus aureus (2 days after inoculation) came out at 1; with Escherichia coli (2 days after inoculation), 1; in the test with Candida albicans it was 70.000; in the test on Aspergillus brasiliensis it was 650.000. In addition, the “number of microorganisms, 7 days” value was 1 in the test on Staphylococcus aureus (7 days after inoculation), 1 in the test with Escherichia coli (7 days after inoculation), 9.000 in the test on Candida albicans (7 days after inoculation) and 360.000 with Aspergillus brasiliensis (7 days after inoculation). The “number of microorganisms, 14 days” value came out at 1 in the test on Staphylococcus aureus (14 days after inoculation), 1 in the test with Escherichia coli (14 days after inoculation), 1 in the test with Candida albicans (14 days after inoculation) and 250.000 in the test with Aspergillus brasiliensis (14 days after inoculation). In addition, the “number of microorganisms, 28 days” value in the test with Staphylococcus aureus (28 days after inoculation) came to 1; with Escherichia coli (28 days after inoculation), 1; in the test with Candida albicans (28 days after inoculation), 1; with Aspergillus brasiliensis (28 days after inoculation) it was 67.000.
Consider `CC(CO)CCCC1CCCCC1` (centres unmarked) [1.0% 2-Methyl 5-Cyclohexylpentanol], for which the “PA germ count, 2 days” value with Pseudomonas aeruginosa (setting [1]) came out at 670.000. Also, the “PA germ count, 7 days” value in the test with Pseudomonas aeruginosa (setting [2]) amounted to 570.000. Moreover, in the test with Pseudomonas aeruginosa (setting [3]), the “PA germ count, 14 days” value came to 780.000. For the same compound, in the test on Staphylococcus aureus (setting [1]), the “SA germ count, 2 days” value is 110.000. The “SA germ count, 7 days” value with Staphylococcus aureus (setting [2]) is 760. Also, in the test on Staphylococcus aureus (setting [3]), the “SA germ count, 14 days” value worked out at 1. In addition, in the test on Staphylococcus aureus (setting [4]), the “SA germ count, 28 days” value was determined as 1. The “EC germ count, 2 days” value with Escherichia coli (setting [1]) was 960.000. Also, the “EC germ count, 7 days” value in the test on Escherichia coli (setting [2]) is reported as 490.000. In addition, the “EC germ count, 14 days” value with Escherichia coli (setting [3]) is 310.000. In addition, in the test on Escherichia coli (setting [4]), the “EC germ count, 28 days” value turned out to be 380.000. Also, the “CA germ count, 28 days” value in the test on Candida albicans (setting [4]) is 630.000.
On to `CCCCC(CC)COCC(O)CO` (centres unmarked) [Ethylhexlglycerin, Ethylhexylglycerin, reference compound], for which the “germ count PA, 2 days” value in the test on Pseudomonas aeruginosa (setting [5]) is listed as 1. The “germ count PA, 7 days” value in the test on Pseudomonas aeruginosa (setting [6]) was 1. In the test with Pseudomonas aeruginosa (setting [7]), the “germ count PA, 14 days” value came to 1. In addition, the “germ count PA, 28 days” value with Pseudomonas aeruginosa (setting [8]) is 1. The “number of microorganisms, 2 days” value in the test on Pseudomonas aeruginosa (PET, Pseudomonas aeruginosa (PA), 2 days after inoculation) is 1; in the test with Staphylococcus aureus (2 days after inoculation), 240.000; in the test with Escherichia coli (2 days after inoculation), 10.000. In addition, the “number of microorganisms, 7 days” value is on record as 1 in the test with Pseudomonas aeruginosa (PET, Pseudomonas aeruginosa (PA), 7 days after inoculation); 36 with Staphylococcus aureus (7 days after inoculation); 82 in the test with Escherichia coli (7 days after inoculation). Besides, the “number of microorganisms, 14 days” value in the test on Pseudomonas aeruginosa (PET, Pseudomonas aeruginosa (PA), 14 days after inoculation) worked out at 1; in the test with Staphylococcus aureus (14 days after inoculation) it was 1; in the test on Escherichia coli (14 days after inoculation), 1. Further, the “number of microorganisms, 28 days” value was determined as 1 in the test on Pseudomonas aeruginosa (PET, Pseudomonas aeruginosa (PA), 28 days after inoculation); 1 in the test with Staphylococcus aureus (28 days after inoculation); 1 in the test with Escherichia coli (28 days after inoculation); 950.000 in the test on Candida albicans (28 days after inoculation). Besides, the “germ count SA, 2 days” value with Staphylococcus aureus (setting [5]) came to 240.000. Moreover, the “germ count SA, 7 days” value with Staphylococcus aureus (setting [6]) worked out at 36. Moreover, the “germ count SA, 14 days” value with Staphylococcus aureus (setting [7]) is given as 1. In addition, in the test on Staphylococcus aureus (setting [8]), the “germ count SA, 28 days” value is 1. In the test on Escherichia coli (setting [5]), the “germ count EC, 2 days” value worked out at 10.000. Further, the “germ count EC, 7 days” value with Escherichia coli (setting [6]) was 82. Besides, the “germ count EC, 14 days” value in the test with Escherichia coli (setting [7]) turned out to be 1. Besides, in the test on Escherichia coli (setting [8]), the “germ count EC, 28 days” value worked out at 1. Moreover, in the test on Candida albicans (setting [8]), the “germ count CA, 28 days” value is 950.000.
Turning to `O=c1cccccc1O` [Tropolone, reference compound], the “number of microorganisms, 2 days” value with Staphylococcus aureus (2 days after inoculation) stood at 110.000; in the test on Escherichia coli (2 days after inoculation), 190.000; in the test on Candida albicans it was 1; with Aspergillus brasiliensis, 690.000. In addition, the “number of microorganisms, 7 days” value with Staphylococcus aureus (7 days after inoculation) amounted to 3.100; in the test with Escherichia coli (7 days after inoculation), 1.100; in the test on Candida albicans (7 days after inoculation) it was 1; in the test on Aspergillus brasiliensis (7 days after inoculation), 26.000. Moreover, the “number of microorganisms, 14 days” value with Staphylococcus aureus (14 days after inoculation) was 3.100; with Escherichia coli (14 days after inoculation), 1.100; with Candida albicans (14 days after inoculation) it was 1; with Aspergillus brasiliensis (14 days after inoculation) it was 1.400. Also, the “number of microorganisms, 28 days” value in the test on Staphylococcus aureus (28 days after inoculation), with Escherichia coli (28 days after inoculation), with Candida albicans (28 days after inoculation) and in the test with Aspergillus brasiliensis (28 days after inoculation) was 1 throughout.
For the compound `CCCCCCCC(=O)NO` [caprylhydroxamic acid, reference compound], the “number of microorganisms, 2 days” value is listed as 1 with Staphylococcus aureus (2 days after inoculation), 6.900 in the test with Escherichia coli (2 days after inoculation), 210.000 with Candida albicans and 810.000 in the test with Aspergillus brasiliensis. For the same compound, the “number of microorganisms, 7 days” value in the test with Staphylococcus aureus (7 days after inoculation) was found to be 1; in the test on Escherichia coli (7 days after inoculation), 1; with Candida albicans (7 days after inoculation), 1; with Aspergillus brasiliensis (7 days after inoculation), 68.000. Further, the “number of microorganisms, 14 days” value with Staphylococcus aureus (14 days after inoculation) stood at 1; in the test with Escherichia coli (14 days after inoculation), 1; with Candida albicans (14 days after inoculation), 1; with Aspergillus brasiliensis (14 days after inoculation), 180. The “number of microorganisms, 28 days” value with Staphylococcus aureus (28 days after inoculation), in the test with Escherichia coli (28 days after inoculation), in the test on Candida albicans (28 days after inoculation) and with Aspergillus brasiliensis (28 days after inoculation) was 1 in each case.

Values taken from patent publication US20230293407A1, “Compositions Comprising (Bio)-Alkanediols with Antimicrobials for Product Protection” (Symrise AG, priority 2020, published 2023).
